Source: patent US20100190683A1, “SOLIDIFIED DETERGENT COMPOSITIONS AND METHOD FOR PRODUCING THE SAME” (priority 2007, published 2010)

What was measured:
[1] = Solubility to tap water and behavior after dissolution of lyophilized samples; assay type: physicochemical; conditions: lyophilization 15 hours
Protocol: On the other hand, such a phenomenon was not seen when ethanol was added (Table 1). Therefore, in the conditions like the ethanol addition groups, the sample was prepared by using t-butyl alcohol in substitution for ethanol, and lyophilized for 15 hours. As a result, solidification (powderization) by lyophilization was possible in both samples. In addition, the solubility to tap water was good, and after dissolution, gelation or the like has not also happened (Table 2). Furthermore, ethanol or t-butyl alcohol was not added, and in the system which only HD was added, the solubility to tap water was good, and after dissolution, gelation or the like had not also happened (Table 2). In the system which as substitution for HD, a nonionic surfactant, polyoxyethylene sorbitan monolaurate (hereinafter referred to as PO) was added, this system was also examined, and then a similar good result was obtained.

[2] = Solubility to tap water of the substance obtained by azeotrope at 70° C.; assay type: physicochemical; conditions: surfactant HD, tap water of 5 mL
Protocol: In the undiluted solution of octadecyl dimethyl (3-trimethoxysilyl propyl) ammonium chloride (hereinafter referred to as QAS) which is an antimicrobial detergent, hexadecyl trimethyl ammonium (hereinafter referred to as HD), which was a cationic surfactant, was added, and for the azeotrope, a sample solution with the addition of acetone or ethanol was prepared, azeotrope was performed at 70° C. […] In the resultant gelated substance, tap water of 5 mL was added, but gelation advanced in many samples highly and solidification was occurred within several minutes to 1 hour, and those were not suitable for practical use (Table 1).

[3] = surfactant HD, solvent t-Butyl alcohol
[4] = surfactant HD, solvent: nothing
[5] = surfactant PO, solvent: nothing

For `CCCCCCCCCCCCCCCCCC[N+](C)(C)CCC[Si](OC)(OC)OC.[Cl-]` [QAS, octadecyl dimethyl (3-trimethoxysilyl propyl) ammonium chloride], the Behavior after dissolution ([1]; surfactant HD, solvent Ethanol) was “No problem”, the “Solubility to tap water” value ([1]; surfactant HD, solvent Ethanol) was “No problem” and the Behavior after dissolution [1, 3] was “No problem”. For the same compound, the “Solubility to tap water” value [1, 3] was “No problem”, the Behavior after dissolution [1, 4] was “No problem” and the “Solubility to tap water” value [1, 4] was “No problem”. For the same compound, the Behavior after dissolution [1, 5] was “No problem”, the “Solubility to tap water” value [1, 5] was “No problem” and the “Solubility to tap water” value ([2]; solvent addition Acetone) was “Gel→Consolidate”. For the same compound, the “Solubility to tap water” value ([2]; solvent addition: nothing) was “Gel→Consolidate”.
